Test results taken from US8592174B2, “Peptidase substrates” (bioMérieux, S.A., priority 2009, dated 2013).
Each block holds one compound with its values, some of them ahead of it.

What was measured:
Assay type in all cases: cell-based
[1] = tested on: Escherichia coli NCTC 10 418; assay: Peptidase detection on Columbia medium (Example 2); design: key to Growth: NG: No growth; 0.5: weak growth; 1: moderate growth; 2: good growth; settings: 40 mg in 400 ml Columbia; 24 h 37° C.
[2] = tested on: Serratia marcescens NCTC 10 211; assay: Peptidase detection on Columbia medium (Example 2); design: key to Growth: NG: No growth; 0.5: weak growth; 1: moderate growth; 2: good growth; settings: 40 mg in 400 ml Columbia; 24 h 37° C.
[3] = tested on: Pseudomonas aeruginosa NCTC 10 662; assay: Peptidase detection on Columbia medium (Example 2); design: key to Growth: NG: No growth; 0.5: weak growth; 1: moderate growth; 2: good growth; settings: 40 mg in 400 ml Columbia; 24 h 37° C.
Experimental: (§2) The 6 media were distributed into Petri dishes 90 mm in diameter, in a proportion of 20 ml per dish.
(§3) Seventeen strains of microorganisms stemming from collections and belonging to various species of bacteria and yeasts are inoculated in spots of approximately 10 000 colony-forming units.
(§4) The media are incubated for 24 hours at 37° C., and then the colonies formed are examined visually, with or without the addition of acid and under a UV lamp at 365 nm.

[4] = tested on: Yersinia enterocolitica NCTC 11 176; assay: Peptidase detection on Columbia medium (Example 2); design: key to Growth: NG: No growth; 0.5: weak growth; 1: moderate growth; 2: good growth; key to Color: —: no color; settings: 40 mg in 400 ml Columbia; 24 h 37° C.
Experimental: as §2, §3, §4

[5] = tested on: Salmonella typhimurium NCTC 74; assay: Peptidase detection on Columbia medium (Example 2); design: key to Growth: NG: No growth; 0.5: weak growth; 1: moderate growth; 2: good growth; settings: 40 mg in 400 ml Columbia; 24 h 37° C.
Experimental: as §2, §3, §4

[6] = tested on: Enterobacter cloacae NCTC 11 936; assay: Peptidase detection on Columbia medium (Example 2); design: key to Growth: NG: No growth; 0.5: weak growth; 1: moderate growth; 2: good growth; settings: 40 mg in 400 ml Columbia; 24 h 37° C.
Experimental: as §2, §3, §4

[7] = tested on: Providencia rettgeri NCTC 7 475; assay: Peptidase detection on Columbia medium (Example 2); design: key to Growth: NG: No growth; 0.5: weak growth; 1: moderate growth; 2: good growth; settings: 40 mg in 400 ml Columbia; 24 h 37° C.
Experimental: as §2, §3, §4

[8] = tested on: Bacillus subtilis NCTC 9 372; assay: Peptidase detection on Columbia medium (Example 2); design: key to Growth: NG: No growth; 0.5: weak growth; 1: moderate growth; 2: good growth; key to Fluo. / Color / Color post-acid.: —: no color; settings: 40 mg in 400 ml Columbia; 24 h 37° C.
[9] = tested on: Enterococcus faecalis NCTC 775; assay: Peptidase detection on Columbia medium (Example 2); design: key to Growth: NG: No growth; 0.5: weak growth; 1: moderate growth; 2: good growth; key to Fluo. / Color / Color post-acid.: —: no color; settings: 40 mg in 400 ml Columbia; 24 h 37° C.
Experimental: as §2, §3, §4

[10] = tested on: Enterococcus faecium NCTC 7 171; assay: Peptidase detection on Columbia medium (Example 2); design: key to Growth: NG: No growth; 0.5: weak growth; 1: moderate growth; 2: good growth; key to Fluo. / Color / Color post-acid.: —: no color; settings: 40 mg in 400 ml Columbia; 24 h 37° C.
Experimental: as §2, §3, §4

[11] = tested on: Staphylococcus epidermidis NCTC 11 047; assay: Peptidase detection on Columbia medium (Example 2); design: key to Growth: NG: No growth; 0.5: weak growth; 1: moderate growth; 2: good growth; key to Fluo. / Color / Color post-acid.: —: no color; settings: 40 mg in 400 ml Columbia; 24 h 37° C.
Experimental: as §2, §3, §4

[12] = tested on: Staphylococcus aureus NCTC 6 571; assay: Peptidase detection on Columbia medium (Example 2); design: key to Growth: NG: No growth; 0.5: weak growth; 1: moderate growth; 2: good growth; key to Fluo. / Color / Color post-acid.: —: no color; settings: 40 mg in 400 ml Columbia; 24 h 37° C.
Experimental: as §2, §3, §4

[13] = tested on: Staphylococcus aureus NCTC 11 939; assay: Peptidase detection on Columbia medium (Example 2); design: key to Growth: NG: No growth; 0.5: weak growth; 1: moderate growth; 2: good growth; key to Fluo. / Color / Color post-acid.: —: no color; settings: 40 mg in 400 ml Columbia; 24 h 37° C.
Experimental: as §2, §3, §4

[14] = tested on: Streptococcus pyogenes NCTC 8 306; assay: Peptidase detection on Columbia medium (Example 2); design: key to Growth: NG: No growth; 0.5: weak growth; 1: moderate growth; 2: good growth; key to Fluo. / Color / Color post-acid.: —: no color; settings: 40 mg in 400 ml Columbia; 24 h 37° C.
[15] = tested on: Listeria monocytogenes NCTC 11 994; assay: Peptidase detection on Columbia medium (Example 2); design: key to Growth: NG: No growth; 0.5: weak growth; 1: moderate growth; 2: good growth; key to Fluo. / Color / Color post-acid.: —: no color; settings: 40 mg in 400 ml Columbia; 24 h 37° C.
Experimental: as §2, §3, §4

[16] = tested on: Candida albicans ATCC 90 028; assay: Peptidase detection on Columbia medium (Example 2); design: key to Growth: NG: No growth; 0.5: weak growth; 1: moderate growth; 2: good growth; key to Fluo. / Color / Color post-acid.: —: no color; settings: 40 mg in 400 ml Columbia; 24 h 37° C.
Experimental: as §2, §3, §4

[17] = tested on: Candida glabrata NCPF 3 943; assay: Peptidase detection on Columbia medium (Example 2); design: key to Growth: NG: No growth; 0.5: weak growth; 1: moderate growth; 2: good growth; key to Fluo. / Color / Color post-acid.: —: no color; settings: 40 mg in 400 ml Columbia; 24 h 37° C.
[18] = tested on: Acinetobacter baumannii 0604029; assay: Peptidase detection on Columbia medium (Example 4); settings: 75 mg/l, 48 h 37° C.
From the text: (§1) After homogenization, the media were distributed into 120-mm-squared dishes. A medium serving as a growth control (Columbia) and denoted C was also poured.

[19] = tested on: Bacillus subtilis 0204038; assay: Peptidase detection on Columbia medium (Example 4); settings: 75 mg/l, 48 h 37° C.
From the text: as §1

[20] = tested on: Burkholderia cepacia 7507032; assay: Peptidase detection on Columbia medium (Example 4); settings: 75 mg/l, 48 h 37° C.
From the text: as §1

Candida albicans 0801025 = assay: Peptidase detection on Columbia medium (Example 4); settings: 75 mg/l, 48 h 37° C.
From the text: as §1

Candida glabrata 0408083 = assay: Peptidase detection on Columbia medium (Example 4); settings: 75 mg/l, 48 h 37° C.
From the text: as §1

[21] = tested on: Citrobacter freundii 0006197; assay: Peptidase detection on Columbia medium (Example 4); settings: 75 mg/l, 48 h 37° C.
From the text: as §1

[22] = tested on: Enterobacter cloacae 0604040; assay: Peptidase detection on Columbia medium (Example 4); settings: 75 mg/l, 48 h 37° C.
From the text: as §1

[23] = tested on: Enterococcus faecalis 0008192; assay: Peptidase detection on Columbia medium (Example 4); settings: 75 mg/l, 48 h 37° C.
From the text: as §1

[24] = tested on: Enterococcus faecium 0610021; assay: Peptidase detection on Columbia medium (Example 4); settings: 75 mg/l, 48 h 37° C.
From the text: as §1

Escherichia coli 0002005 = assay: Peptidase detection on Columbia medium (Example 4); settings: 75 mg/l, 48 h 37° C.
From the text: as §1

[25] = tested on: Klebsiella pneumoniae 0008009; assay: Peptidase detection on Columbia medium (Example 4); settings: 75 mg/l, 48 h 37° C.
From the text: as §1

[26] = tested on: Listeria monocytogenes 8812049; assay: Peptidase detection on Columbia medium (Example 4); settings: 75 mg/l, 48 h 37° C.
From the text: as §1

MRSA 0303033 = assay: Peptidase detection on Columbia medium (Example 4); settings: 75 mg/l, 48 h 37° C.
From the text: as §1

[27] = tested on: Morganella morganii 9207053; assay: Peptidase detection on Columbia medium (Example 4); settings: 75 mg/l, 48 h 37° C.
From the text: as §1

[28] = tested on: Providencia rettgeri 0706064; assay: Peptidase detection on Columbia medium (Example 4); settings: 75 mg/l, 48 h 37° C.
From the text: as §1

[29] = tested on: Pseudomonas aeruginosa 0001001; assay: Peptidase detection on Columbia medium (Example 4); settings: 75 mg/l, 48 h 37° C.
From the text: as §1

[30] = tested on: Salmonella ser typhimurium 0801029; assay: Peptidase detection on Columbia medium (Example 4); settings: 75 mg/l, 48 h 37° C.
From the text: as §1

[31] = tested on: Serratia marcescens 7303004; assay: Peptidase detection on Columbia medium (Example 4); settings: 75 mg/l, 48 h 37° C.
From the text: as §1

[32] = tested on: Staphylococcus aureus 7811049; assay: Peptidase detection on Columbia medium (Example 4); settings: 75 mg/l, 48 h 37° C.
From the text: as §1

[33] = tested on: Staphylococcus epidermidis 0203050; assay: Peptidase detection on Columbia medium (Example 4); settings: 75 mg/l, 48 h 37° C.
From the text: as §1

[34] = tested on: Streptococcus pyogenes 9806380; assay: Peptidase detection on Columbia medium (Example 4); settings: 75 mg/l, 48 h 37° C.
From the text: as §1

[35] = tested on: Yersinia enterocolitica 7605019; assay: Peptidase detection on Columbia medium (Example 4); settings: 75 mg/l, 48 h 37° C.
From the text: as §1

Color [2]: Orange
Growth [2]: 2
Color [3]: Orange
Growth [3]: 2
Color [5]: Orange
Growth [5]: 2
Color [6]: Orange
Growth [6]: 2
Color [8]: —
Growth [8]: 1
Color [9]: —
Growth [9]: 1
Color [10]: —
Growth [10]: 1
Color [14]: —
Growth [14]: 1
Color [15]: —
Growth [15]: 1
SMILES: C[n+]1ccc(C=Cc2ccc(NC(=O)CC[C@H](N)C(=O)O)cc2)c2ccccc21.Cl.[Cl-] [λ-Glu-ASQM^+, L-gamma-glutamyl-4-(4′-amidostyryl)-N-methylquinolinium (dichloride)]
Color [1]: Orange
Growth [1]: 2
Color [4]: —
Growth [4]: 2
Color [7]: Orange
Growth [7]: 2
Color [11]: —
Growth [11]: 1
Color [12]: —
Growth [12]: 1
Color [13]: —
Growth [13]: 1
Color [16]: —
Growth [16]: 1
Color [17]: —
Growth [17]: 1

Color [18]: orange
Coloration strength [18]: +
Growth ([18]; control C: ++): ++
Color [19]: −
Coloration strength [19]: −
Growth ([19]; control C: ++): ++
Color [20]: −
Coloration strength [20]: −
Growth ([20]; control C: ++): ++
Color [21]: −
Coloration strength [21]: −
Growth ([21]; control C: ++): ++
Color [22]: orange
Coloration strength [22]: +
Growth ([22]; control C: ++): ++
Color [23]: −
Coloration strength [23]: −
Growth ([23]; control C: ++): ++
Color [24]: −
Coloration strength [24]: −
Growth ([24]; control C: ++): ++
Color [25]: orange
Coloration strength [25]: +
Growth ([25]; control C: ++): ++
Color [26]: orange
Coloration strength [26]: +
Growth ([26]; control C: ++): ++
Color (MRSA 0303033): −
Coloration strength (MRSA 0303033): −
Growth (MRSA 0303033; control C: ++): ++
Color [27]: −
Coloration strength [27]: −
Growth ([27]; control C: ++): ++
Color [29]: −
Coloration strength [29]: −
Growth ([29]; control C: ++): ++
Color [30]: −
Coloration strength [30]: −
Growth ([30]; control C: ++): ++
Color [31]: orange
Coloration strength [31]: +
Growth ([31]; control C: ++): ++
Color [34]: orange
Coloration strength [34]: +
Growth ([34]; control C: ++): ++
SMILES: C[C@H](N)C(=O)N[C@@H](C)C(=O)Nc1ccc(C=Cc2cc[n+](C)c3ccccc23)cc1.Cl.[Cl-] [L-alanyl-L-alanyl-4-(4′-amidostyryl)-N-methylquinolinium (dichloride)]
Coloration strength (Candida albicans 0801025): −
Growth (Candida albicans 0801025; control C: ++): +
Coloration strength (Candida glabrata 0408083): −
Growth (Candida glabrata 0408083; control C: +): −
Color (Escherichia coli 0002005): −
Coloration strength (Escherichia coli 0002005): −
Growth (Escherichia coli 0002005; control C: ++): ++
Color [28]: −
Coloration strength [28]: −
Growth ([28]; control C: ++): ++
Color [32]: −
Coloration strength [32]: −
Growth ([32]; control C: ++): ++
Color [33]: −
Coloration strength [33]: −
Growth ([33]; control C: ++): ++
Color [35]: −
Coloration strength [35]: −
Growth ([35]; control C: ++): ++
